Measured values published in patent publication US4518586A, “GRF Analogs III” (The Salk Institute for Biological Studies, priority 1983, dated 1985).
Square brackets hold non-standard residues; d marks the D form. Peptide text beside a SMILES is read from it. Nle = CCCC[C@H](N)C(=O)O

Key:
[1] = system: cells of rat pituitary glands; assay: in vitro assay of growth hormone release from cultured rat pituitary cells, side-by-side with hpGRF(1-40)-OH standard; format: cell-based; details: for Comparison %: GH release at equimolar concentrations relative to synthetic hpGRF(1-40)-OH standard (100%), incubation 3 to 4 hours, ir GH by radioimmunoassay
Procedure: To determine the effectiveness of the various synthetic peptides to promote the release of growth hormone, in vitro assays are carried out using synthetic hpGRF(1-40)-OH as a standard in side-by-side comparison with equimolar concentrations of the various other analogs and fragments synthesized. Cultures are used which include cells of rat pituitary glands removed some three to five days previously. Cultures which are considered optimal for the secretion of growth hormone are used for the comparative testing, in the general manner described in Vale et al. Endocrinology, 91, 562-572 (1972) and as more particularly described in Vale et al. Endocrinology, (1983), in press. Incubation with the substance to be tested is carried out for 3 to 4 hours, and aliquots of the culture medium are removed and processed to measure their contents in immunoreactive GH(ir GH) by a well-characterized radioimmunoassay.

[2] = system: freely running normal male rats; assay: in vivo GH secretion after injection through indwelling catheter in FLA-63-pretreated rats; set-up: species or system rat; details: male rats pretreated with FLA-63
Procedure: In addition to the in vitro tests for secretion of growth hormone, in vivo experiments inject the synthetic peptides through an indwelling catheter into freely running normal male rats after pretreating them with FLA-63, a dopamine hydroxylase inhibitor that suppresses spontaneous GH secretion without affecting the response to exogenous GRF. Blood samples are taken through the same catheter immediately prior to and 5 and 20 minutes after injections. […] Dosages between about 100 nanograms and about 50 micrograms of these peptides per Kg. of body weight are considered to be effective in causing GH secretion.

Compound | Comparison % [1] | duration compared with rGRF(1-29)-NH2 ([2]; GH levels in blood) | stimulation of the secretion of pituitary GH (GH levels in blood) ([2]; blood samples prior to and 5 and 20 minutes after injection, radioimmunoassay) | maximum effective concentration ([1]; in vitro GH secretion)
CCCC[C@H](NC(=O)[C@@H](NC(=O)[C@@H](CCC(=O)O)NC(=O)[C@H](Cc1c[nH]cn1)NC(=O)[C@H](CC(C)C)NC(=O)[C@H](CC(C)C)NC(=O)[C@H](CCCCN)NC(=O)[C@H](CCCNC(=N)N)NC(=O)[C@H](C)NC(=O)[C@H](Cc1ccc(O)cc1)NC(=O)[C@H](CC(C)C)NC(=O)[C@H](CCC(N)=O)NC(=O)CNC(=O)[C@H](CC(C)C)NC(=O)[C@@H](NC(=O)[C@H](CCCNC(=N)N)NC(=O)[C@H](CCCNC(=N)N)NC(=O)[C@H](Cc1ccc(O)cc1)NC(=O)[C@H](CO)NC(=O)[C@H](CO)NC(=O)[C@@H](NC(=O)[C@H](Cc1ccccc1)NC(=O)[C@@H](NC(=O)[C@H](C)NC(=O)[C@H](CC(=O)O)NC(=O)[C@H](C)NC(=O)[C@@H](N)Cc1c[nH]cn1)[C@@H](C)CC)[C@@H](C)O)[C@@H](C)CC)[C@@H](C)CC)C(=O)N[C@@H](CC(N)=O)C(=O)N[C@@H](CCCNC(=N)N)C(N)=O [[D-Glu^25, Nle^27]-rGRF(1-29)-NH2, H-His-Ala-Asp-Ala-Ile-Phe-Thr-Ser-Ser-Tyr-Arg-Arg-Ile-Leu-Gly-Gln-Leu-Tyr- Ala-Arg-Lys-Leu-Leu-His-D-Glu-Ile-Nle-Asn-Arg-NH2] (H-HADAIFTSSYRRILGQLYARKLLH[dE]I[Nle]NR-NH2) | 125% |  |  | 
CCCC[C@H](NC(=O)[C@@H](NC(=O)[C@H](CCC(=O)O)NC(=O)[C@H](Cc1c[nH]cn1)NC(=O)[C@@H](CC(C)C)NC(=O)[C@H](CC(C)C)NC(=O)[C@H](CCCCN)NC(=O)[C@H](CCCNC(=N)N)NC(=O)[C@H](C)NC(=O)[C@H](Cc1ccc(O)cc1)NC(=O)[C@H](CC(C)C)NC(=O)[C@H](CCC(N)=O)NC(=O)CNC(=O)[C@H](CC(C)C)NC(=O)[C@@H](NC(=O)[C@H](CCCNC(=N)N)NC(=O)[C@H](CCCNC(=N)N)NC(=O)[C@H](Cc1ccc(O)cc1)NC(=O)[C@H](CO)NC(=O)[C@H](CO)NC(=O)[C@@H](NC(=O)[C@H](Cc1ccccc1)NC(=O)[C@@H](NC(=O)[C@H](C)NC(=O)[C@H](CC(=O)O)NC(=O)[C@H](C)NC(=O)[C@@H](N)Cc1c[nH]cn1)[C@@H](C)CC)[C@@H](C)O)[C@@H](C)CC)[C@@H](C)CC)C(=O)N[C@@H](CC(N)=O)C(=O)N[C@@H](CCCNC(=N)N)C(N)=O [[D-Leu^23, Nle^27]-rGRF(1-29)-NH2, H-His-Ala-Asp-Ala-Ile-Phe-Thr-Ser-Ser-Tyr-Arg-Arg-Ile-Leu-Gly-Gln-Leu-Tyr- Ala-Arg-Lys-Leu-D-Leu-His-Glu-Ile-Nle-Asn-Arg-NH2] (H-HADAIFTSSYRRILGQLYARKL[dL]HEI[Nle]NR-NH2) | 160% | substantially longer duration | powerful stimulators of the secretion of pituitary GH | 
[D-Leu^23, Nle^27 ]-hpGRF(1-29)-NH2 |  |  |  | about 1 nanomolar
